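Results reflect a 48-hour exposure of cells in 96-well plates to compound at five concentrations. GI50: concentration for 50% inhibition of growth.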 Active and inactive are the calls of the source. Cut-off read from the data, not from the text of the source: active = GI50 up to about 1.1 µM and inactive = higher.
Assays:
Assay in all cases: growth of human tumour cells (NCI), 48 h
[1] = tested on: SN12C
[2] = tested on: NCI/ADR-RES
[3] = tested on: MDA-MB-435
[4] = tested on: A549
[5] = tested on: SNB-75
[6] = tested on: SNB-19
[7] = tested on: K562
[8] = tested on: HCT-15
[9] = tested on: SF-295
[10] = tested on: IGROV-1
[11] = tested on: SF-539
[12] = tested on: HT-29
[13] = tested on: NCI-H460
[14] = tested on: HOP-62
[15] = tested on: SF-268
[16] = tested on: OVCAR-5
[17] = tested on: COLO 205
[18] = tested on: T47D
[19] = tested on: SK-MEL-28

## Cc1c2c(c(C)n1-c1ccccc1)C(=O)N(CCCCN1CCN(c3ccccc3)CC1)C2=O
[1]
  GI50: 13.1 µM (inactive)
[2]
  GI50: 17 µM (inactive)
[3]
  GI50: 8.05 µM (inactive)
[4]
  GI50: 14.5 µM (inactive)
[5]
  GI50: 6.89 µM (inactive)
[6]
  GI50: 29 µM (inactive)
[7]
  GI50: 4.22 µM (inactive)
[8]
  GI50: 7.74 µM
[9]
  GI50: 14.6 µM (inactive)
[10]
  GI50: 15.1 µM (inactive)
[11]
  GI50: 12 µM (inactive)
[12]
  GI50: 2.57 µM (inactive)
[13]
  GI50: 11.7 µM (inactive)
[14]
  GI50: 7.73 µM (inactive)
[15]
  GI50: 37.8 µM (inactive)
[16]
  GI50: 49.3 µM (inactive)
[17]
  GI50: 6.62 µM (inactive)
[18]
  GI50: 3.49 µM (inactive)

## O=C(CCc1ccccc1)ON1C(=S)NC(c2ccccc2)(c2ccccc2)C1=S
[1]
  GI50: 44.8 µM (inactive)
[19]
  GI50: > 100 µM (inactive)
[2]
  GI50: 28.5 µM (inactive)
[3]
  GI50: 36.9 µM (inactive)
[4]
  GI50: 37.5 µM (inactive)
[5]
  GI50: 33 µM (inactive)
[6]
  GI50: 64.4 µM (inactive)
[7]
  GI50: 14.6 µM (inactive)
[8]
  GI50: 28.4 µM
[9]
  GI50: 42 µM (inactive)
[10]
  GI50: 25.9 µM (inactive)
[11]
  GI50: 26.4 µM (inactive)
[12]
  GI50: 25.4 µM (inactive)
[13]
  GI50: 31.6 µM (inactive)
[14]
  GI50: 30.1 µM (inactive)
[15]
  GI50: 28.2 µM (inactive)
[16]
  GI50: 61.4 µM (inactive)
[17]
  GI50: 40.2 µM (inactive)
[18]
  GI50: 41.6 µM (inactive)

## N#Cc1sc2c(c1OC(=O)c1ccco1)c(=O)n(-c1ccccc1)c(=S)n2-c1ccccc1
[1]
  GI50: 27.8 µM (inactive)
[19]
  GI50: 35 µM (inactive)
[2]
  GI50: 26.6 µM (inactive)
[3]
  GI50: 27.7 µM (inactive)
[4]
  GI50: 35.9 µM (inactive)
[5]
  GI50: 18.8 µM (inactive)
[6]
  GI50: 36.4 µM (inactive)
[7]
  GI50: 15 µM (inactive)
[8]
  GI50: 20 µM
[9]
  GI50: 26.7 µM (inactive)
[10]
  GI50: > 10 µM (inactive)
[11]
  GI50: 26.1 µM (inactive)
[12]
  GI50: 32.9 µM (inactive)
[13]
  GI50: 32 µM (inactive)
[14]
  GI50: 25.9 µM (inactive)
[15]
  GI50: 32.4 µM (inactive)
[17]
  GI50: 22.8 µM (inactive)
[18]
  GI50: 21.1 µM (inactive)

## CC#CCOC(=O)c1ccccc1OC(C)=O
[1]
  GI50: > 100 µM (inactive)
[2]
  GI50: > 100 µM (inactive)
[3]
  GI50: > 100 µM (inactive)
[5]
  GI50: > 100 µM (inactive)
[6]
  GI50: > 100 µM (inactive)
[7]
  GI50: > 100 µM (inactive)
[8]
  GI50: > 100 µM
[9]
  GI50: > 100 µM (inactive)
[10]
  GI50: > 100 µM (inactive)
[11]
  GI50: > 100 µM (inactive)
[13]
  GI50: > 100 µM (inactive)
[14]
  GI50: > 100 µM (inactive)
[15]
  GI50: > 100 µM (inactive)
[16]
  GI50: > 100 µM (inactive)
[17]
  GI50: > 100 µM (inactive)
[18]
  GI50: > 100 µM (inactive)

## COc1cc2c(cc1[N+](=O)[O-])C(=O)C(Br)(Br)CCC2
[1]
  GI50: 2.21 µM (inactive)
[2]
  GI50: 2.68 µM (inactive)
[3]
  GI50: 2.81 µM (inactive)
[4]
  GI50: 4.37 µM (inactive)
[5]
  GI50: 13.1 µM (inactive)
[6]
  GI50: 7.01 µM (inactive)
[7]
  GI50: 1.09 µM (active)
[8]
  GI50: 1.66 µM
[9]
  GI50: 6.52 µM (inactive)
[10]
  GI50: 0.955 µM (active)
[11]
  GI50: 1.9 µM (inactive)
[12]
  GI50: 4.88 µM (inactive)
[13]
  GI50: 6.65 µM (inactive)
[14]
  GI50: 3.38 µM (inactive)
[15]
  GI50: 4.14 µM (inactive)
[16]
  GI50: 1.91 µM (inactive)
[17]
  GI50: 1.91 µM (inactive)
[18]
  GI50: 2.68 µM (inactive)

## Cc1ccc(Nc2cc(=O)[nH]c(=S)[nH]2)cc1
[1]
  GI50: > 100 µM (inactive)
[2]
  GI50: > 100 µM (inactive)
[3]
  GI50: > 100 µM (inactive)
[4]
  GI50: > 100 µM (inactive)
[5]
  GI50: > 100 µM (inactive)
[6]
  GI50: > 100 µM (inactive)
[7]
  GI50: > 100 µM (inactive)
[8]
  GI50: > 100 µM
[9]
  GI50: > 100 µM (inactive)
[10]
  GI50: > 100 µM (inactive)
[11]
  GI50: > 100 µM (inactive)
[12]
  GI50: > 100 µM (inactive)
[13]
  GI50: > 100 µM (inactive)
[14]
  GI50: > 100 µM (inactive)
[15]
  GI50: > 100 µM (inactive)
[16]
  GI50: > 100 µM (inactive)
[17]
  GI50: > 100 µM (inactive)
[18]
  GI50: > 100 µM (inactive)

— ChEMBL document CHEMBL1201862, “PubChem BioAssay data set” (2004)
